The source of these data is patent US9605283B2, “Microorganism modified for the production of 1,3-propanediol” (INSTITUT NATIONAL DES SCIENCES APPLIQUÉES, priority 2012, dated 2017).

Substitutions are numbered along the chain they refer to. A value given as a limit tells only on which side of the number the result lay.

Common to all, as to type: biochemical
The target in series [1] is T1, Escherichia coli malate dehydrogenase Ec-Mdh variant R81A G179D, SEQ ID No. 168 (Escherichia coli, UniProt P61889, G179D/R81A).
T1 sequence (P61889 1-312 R81A/G179D): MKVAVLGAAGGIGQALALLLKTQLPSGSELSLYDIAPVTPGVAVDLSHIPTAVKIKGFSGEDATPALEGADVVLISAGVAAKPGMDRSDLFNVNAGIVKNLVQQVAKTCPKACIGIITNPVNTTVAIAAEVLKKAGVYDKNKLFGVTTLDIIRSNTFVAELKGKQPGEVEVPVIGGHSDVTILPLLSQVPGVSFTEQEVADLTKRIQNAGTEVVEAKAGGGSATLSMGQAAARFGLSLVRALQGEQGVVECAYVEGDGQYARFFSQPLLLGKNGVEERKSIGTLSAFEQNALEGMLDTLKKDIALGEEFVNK
In words: DHB dehydrogenase kinetics, Ec-Mdh R81A G179D. As to conditions: 37° C., pH 8, 10 mM NAD. The procedure: Site-directed mutagenesis of the E. coli mdh and the B. subtilis mdh genes were carried out using the oligonucleotide pairs listed in Table 3 and the pET28-Ec-mdh and the pET28-Bs-mdh plasmids as the templates. Point mutations to change the amino acid sequence were introduced by PCR (Phusion 1U, HF buffer 20% (v/v), dNTPs 0.2 mM, direct and reverse primers 0.04 μM each, template plasmid 50 ng, water) using the oligonucleotide pairs listed in Table 3. Mutated genes contained a new restriction site listed in Table 3 (introduced using silent mutations) in addition to the functional mutation to facilitate identification of mutated clones. The PCR products were digested by DpnI at 37° C. for 1 h to remove template DNA, and transformed into competent E. coli DH5-alpha cells (NEB). The mutated plasmids were identified by restriction site analysis and verified to carry the desired mutations by DNA sequencing.
Mutant enzymes were expressed, purified and tested for DHB dehydrogenase activity as described in Example 1.
The mutation R81A in Ec-Mdh (by reference to SEQ ID No. 124) was combined with additional changes in the protein sequence.

Series [2] deals with T2, Escherichia coli malate dehydrogenase Ec-Mdh variant R81A I12V, SEQ ID No. 162 (Escherichia coli, UniProt P61889, I12V/R81A).
T2 sequence (P61889 1-312 I12V/R81A): T1 sequence (P61889 1-312 R81A/G179D) with I12V, D179G
The experiment in a line: DHB dehydrogenase / malate dehydrogenase kinetics, Ec-Mdh R81A I12V. The conditions noted are these: read-out: Km (DHB); 37° C., pH 8, 10 mM NAD.
Method: (§4) Activity of the cytosolic DHB dehydrogenases (Ec-Mdh, Bs-Mdh, Ll-LdhA) was assayed by following the DHB-dependent reduction of NAD^+.
(§5) The reaction mixture contained 60 mM Hepes (pH 8), 50 mM potassium chloride, 5 mM MgCl2, 10 mM NAD, (optionally, 5 mM fructose-1,6-bisphosphate (F16bP)) (all products from Sigma), and appropriate amounts of purified enzyme or cell extract. Reactions were started by adding 50 mM (L)-2,4-dihydroxybutyrate (Rhodia).
All enzymatic assays were carried out at 37° C. in 96-well flat bottomed microtiter plates in a final volume of 250 μL.

For series [3], the target named is T3, Zymomonas mobilis pyruvate decarboxylase Zm-Pdc variant W392L, SEQ ID No. 192 (Zymomonas mobilis, UniProt P06672, W392L).
T3 sequence (P06672 1-568 W392L): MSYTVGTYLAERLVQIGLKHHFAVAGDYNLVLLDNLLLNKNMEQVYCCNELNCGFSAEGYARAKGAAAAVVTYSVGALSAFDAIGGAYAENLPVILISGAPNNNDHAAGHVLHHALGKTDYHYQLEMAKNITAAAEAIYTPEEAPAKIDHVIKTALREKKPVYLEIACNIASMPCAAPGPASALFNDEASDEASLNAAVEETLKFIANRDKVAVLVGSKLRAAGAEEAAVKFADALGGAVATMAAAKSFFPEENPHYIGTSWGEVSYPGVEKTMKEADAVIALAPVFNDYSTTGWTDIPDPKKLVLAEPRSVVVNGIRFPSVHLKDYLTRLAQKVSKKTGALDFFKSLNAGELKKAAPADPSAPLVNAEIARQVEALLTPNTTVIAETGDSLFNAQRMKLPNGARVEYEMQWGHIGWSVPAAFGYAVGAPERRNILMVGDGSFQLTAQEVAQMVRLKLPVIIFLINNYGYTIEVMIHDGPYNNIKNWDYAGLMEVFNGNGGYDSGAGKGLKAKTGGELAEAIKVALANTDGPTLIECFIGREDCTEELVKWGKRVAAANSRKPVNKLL
In words: OHB decarboxylase / pyruvate decarboxylase kinetics, Zm-Pdc W392L. The conditions noted are these: 37° C., pH 7, coupled to yeast alcohol dehydrogenase/NADH; read-out: Km (natural substrate, pyruvate). The procedure:
(§1) OHB decarboxylase activity was assayed by coupling the decarboxylase activity to the NADPH-dependent reduction of the released 3-hydroxypropanal by purified aldehyde reductase, YqhD, from E. coli. The decarboxylation of pyruvate was coupled to the NADH-dependent reduction of acetaldehyde catalysed by yeast alcohol dehydrogenase. Branched-chain alpha-ketoacid decarboxylase activity was measured on 4-methyl-2-oxovaleric acid by coupling to the NADH-dependent reduction of 3-methylbutanal catalysed by horse liver alcohol dehydrogenase. […] Reactions were started by adding 20 mM 2-oxo-4-hydroxybutyrate (OHB), 10 mM 4-methyl-2-oxovaleric acid (MOV), or 5 mM pyruvate.
(§2) Site-directed mutagenesis of the L. lactis kdcA and the Z. mobilis Pdc genes was carried out using the oligonucleotide pairs listed in Table 9 and the pET28-Ll-kdcA and pET28-Zm-Pdc plasmids, respectively, as the template.
(§3) Mutant enzymes were expressed, purified and tested for OHB decarboxylase, pyruvate decarboxylase and MOV decarboxylase activity as described in Example 4.

The target in series [4] is T4, Zymomonas mobilis pyruvate decarboxylase Zm-Pdc variant G413N, SEQ ID No. 194 (Zymomonas mobilis, UniProt P06672, G413N).
T4 sequence (P06672 1-568 G413N): T3 sequence (P06672 1-568 W392L) with L392W, G413N
The experiment in a line: OHB decarboxylase / pyruvate decarboxylase kinetics, Zm-Pdc G413N. As to conditions: 37° C., pH 7, coupled to yeast alcohol dehydrogenase/NADH; read-out: Km (natural substrate, pyruvate). The method, then: as §1, §2, §3

Series [5] is described as follows: Malate dehydrogenase activity (natural substrate).
The nature of series [6]: DHB dehydrogenase activity of cytosolic enzymes (DHB-dependent reduction of NAD+).
Method: as §4, §5
All enzymatic assays were carried out at 37° C. in 96-well flat bottomed microtiter plates in a final volume of 250 μL. The reactions were followed by the characteristic absorption of NADH at 340 nm (εNADH=6.22 mM^−1 cm^−1) or the absorbtion of DCIP at 655 nm (εDCIP=5.9 mM^−1 cm^−1) in a microplate reader (BioRad 680XR).

Consider `O=C(O)[C@@H](O)CCO` [DHB, (L)-2,4-dihydroxybutyrate], for which the Km in series [1] and in series [2] was > 100 mM in each case.
On to `CC(=O)C(=O)O` [pyruvate], for which the Km in series [3] and in series [4] was > 50 mM in each case.
With “Bs-Mdh: (L)-malate dehydrogenase of Bacillus subtilis, wild-type, SEQ ID No. 126”, the “Max. specific activity, Natural substrate” value in series [5] (natural substrate (L)-malate, Table 2) was found to be 10.5 µmol/mg/min. The molecule further registered an activity on malate in series [5] (text of Example 2) of 10.9 µmol/mg/min. Also, the “DHB dehydrogenase activity (in words)” value in series [6] (cytosolic wild-type enzymes) is reported as “no measurable DHB dehydrogenase activity”. Moreover, the “maximum activity on DHB” value in series [6] (text of Example 2) was found to be 0 µmol/mg/min. Further, the “Max. specific activity, DHB” value in series [6] (when not saturated, activity estimated at 50 mM substrate, Table 2) is 0 µmol/mg/min.
